# Reference: patent publication US20240254144A1, “SALT FORM OF PYRROLOTRIAZINE COMPOUND, CRYSTAL FORM THEREOF, AND PREPARATION METHOD THEREFOR” (JUMBO DRUG BANK CO., LTD., priority 2021, published 2024)
# Tests used:
# [1] = Hygroscopicity by dynamic vapor sorption (DVS); format: physicochemical
# Source text: SMS DVS intrinsic dynamic vapor sorption instrument
# [2] = Solid stability test (long-term and accelerated lofting); format: physicochemical
# Source text: Each sample was separately put into a double-layer LDPE bag with each layer of LDPE bag sealed by a binding buckle. The bag was then put into an aluminum foil bag for heat sealing, and then put into a stability box under corresponding conditions for observation.
# [3] = Crystal form screening / stability in different solvents; format: physicochemical; details: stirred at 50° C. for 3 h, XRPD
# Description: About 50 mg of the compound of formula (II) was weighed out separately and dissolved in different solvents, the mixtures were stirred at 50° C. for 3 h. The reaction liquids were cooled to room temperature, filtered for collection, and dried in vacuum, and the obtained solids were tested by XRPD.
# MNK2 (h) protein kinase = target: T1, MNK2 (h) protein kinase (Homo sapiens, UniProt Q9HBH9); assay: Inhibitory activity against MNK2 protein kinase (KinaseProfiler, 33P-ATP filter-binding); format: biochemical; details: myelin basic protein substrate, 40 min at room temperature
# T1 construct: purchased Eurofins Pharma Discovery Services UK Limited (KinaseProfiler service)
# T1 sequence (Q9HBH9 whole entry): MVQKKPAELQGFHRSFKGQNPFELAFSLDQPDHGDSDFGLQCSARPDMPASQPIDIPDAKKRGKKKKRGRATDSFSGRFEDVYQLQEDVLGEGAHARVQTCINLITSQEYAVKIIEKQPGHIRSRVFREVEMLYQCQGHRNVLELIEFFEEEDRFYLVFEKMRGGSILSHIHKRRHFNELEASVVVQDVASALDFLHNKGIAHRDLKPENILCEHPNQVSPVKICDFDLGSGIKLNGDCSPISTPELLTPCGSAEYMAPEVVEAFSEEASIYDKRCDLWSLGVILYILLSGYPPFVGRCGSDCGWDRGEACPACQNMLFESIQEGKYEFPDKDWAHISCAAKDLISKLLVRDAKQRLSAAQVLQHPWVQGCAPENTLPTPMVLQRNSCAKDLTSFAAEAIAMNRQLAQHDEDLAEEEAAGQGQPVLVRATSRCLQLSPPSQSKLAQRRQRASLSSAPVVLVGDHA
# Description: Purpose of experiment: to test the inhibitory activity of the compound against MNK2 protein kinase Experimental materials: assay buffer: 8 mM 3-(N-morpholino)propanesulfonic acid, 0.2 mM disodium ethylenediaminetetraacetate, 0.01% polyoxyethylene lauryl ether, 5% glycerol, 0.1% β-mercaptoethanol and 1 mg of bovine serum albumin
# Experimental operation: Mnk2 protein kinase inhibitory activity assays were performed using the KinaseProfiler™ service from Eurofins Pharma Discovery Services UK Limited. Serially diluted DMSO solutions containing the compound to be tested (3-fold serial dilution, starting from 10 μM), MNK2 (h) protein kinase and 0.33 mg/mL myelin basic protein were added to a freshly prepared buffer (pH=7.0), and then stirred homogeneously. The reaction was initiated by adding a mixture of ^33P-ATP (intensity of radioactivity: 10 μCi/μL) and 10 mM magnesium acetate. After the resulting mixture was reacted at room temperature for 40 min, the reaction was terminated by adding phosphoric acid to dilute to a concentration of 0.5%. […] After drying, the intensity of radioactivity was determined using the Filter-Binding method.
# The protein kinase inhibitory activity of the compound was expressed as a percentage of the residual protein kinase activity relative to the blank substrate (DMSO alone). […]
structure (smiles),measurement,setting,value
Cc1cc(Nc2ncnn3cc(OCCN4CCC(F)(F)C4)c(C)c23)c(=O)n2c1C(=O)NC21CCCC1,hygroscopic weight gain ΔW,"[1]; 25° C. and 80% RH, DVS",1.179%
same,hygroscopicity (in words),"[1]; 25° C. and 80% RH, DVS",relatively weak hygroscopicity
same,crystal form before and after the hygroscopic test,"[1]; DVS 0%~95%~0% RH, 25° C.",not changed
same,Crystal form,"[2]; 25° C./60% RH, 12 months",Crystal form A
same,Crystal form,"[2]; 25° C./60% RH, Day 0",Crystal form A
same,Crystal form,"[2]; 40° C./75% RH, 6 months",Crystal form A
same,Crystal form,"[2]; 40° C./75% RH, Day 0",Crystal form A
Cc1cc(Nc2ncnn3cc(OCCN4CCC(F)(F)C4)c(C)c23)c(=O)n2c1C(=O)NC21CCCC1 [compound of formula (II)],Crystal form,[3]; Acetonitrile,Crystal form A
same,Crystal form,[3]; Ethanol,Crystal form B
same,Crystal form,[3]; Methanol,Crystal form A
same,Crystal form,[3]; n-Heptane,Crystal form B
same,Crystal form,[3]; tert-Butyl methyl ether,Crystal form A
Cc1cc(Nc2ncnn3cc(OCCN4CCC(F)(F)C4)c(C)c23)c(=O)n2c1C(=O)NC21CCCC1 [Compound of formula (I)],IC50,MNK2 (h) protein kinase,17 nM
